Columns and labels:
KRAS-G12D = molecular target: T1, KRAS-G12D (Homo sapiens, UniProt P01116, G12D); test: SOS-catalyzed nucleotide exchange assay (Procedure A, TR-FRET); assay type: biochemical; conditions: 60 min preincubation, SOS + GTP, read-out: KRAS G12D GNE IC50
T1 construct: N-terminal biotin-acceptor peptide […]
Source text: (§1) Procedure for SOS-Catalyzed Nucleotide Exchange Assay for KRAS-G12C/D/V, G13D, HRAS, and NRAS (Procedure A)
(§2) Recombinant KRAS-G12C protein used in this assay has an additional triple mutation (C51S/C80L/C118S), whereas KRAS-G12D/V, G13D, HRAS and NRAS are in context of their WT protein sequence background. Specifically, the SOS-catalyzed nucleotide exchange assay utilizes a preformed TR-FRET complex containing a specific biotinylated RAS protein (KRAS-G12C/V/D, G13D, HRAS, NRAS; described above) with Bodipy-GDP, and Terbium-streptavidin. Compounds are preincubated with this complex for 60 minutes. Subsequently, recombinant human SOS protein and unlabeled GTP are added to initiate the exchange reaction. Small molecule inhibitors stabilize the Bodipy-GDP complex whereas the untreated protein rapidly exchanges Bodipy-GDP for unlabeled GTP resulting in reduced TR-FRET signal.
(§3) To assemble the preformed TR-FRET complexes, each biotinylated RAS protein is diluted to 2 μM in an EDTA Buffer (20 mM HEPES pH 7.5, 50 mM sodium chloride, 10 mM EDTA, and 0.01% Tween) and incubated at room temperature for one hour. This mixture is then further diluted to 90 nM in an Assay Buffer (20 mM HEPES pH 7.5, 150 mM sodium chloride, 10 mM magnesium chloride, and 0.005% Tween) containing 15 nM of Terbium-Streptavidin (Invitrogen, catalog #PV3577) and 900 nM of Bodipy-GDP (Invitrogen, catalog #G22360) and incubated at room temperature for six hours. It should be noted that this preformed TR-FRET complex for each of the RAS protein were made ahead of time, aliquoted and stored at −80° C. until the day of the experiment.
(§4) Each test compound (10 mM stock in DMSO) is diluted in DMSO to make a final-10-point, 3-fold dilution and is acoustically dispensed into a 384-well assay plate (Corning, catalog #3820) using an Echo 550 (Labcyte). Each well of the assay plate receives 3 μL of a specific 3× RAS preformed TR-FRET complex and 3 μL of Assay Buffer and is incubated at room temperature for 60 minutes (preincubation time). Each well then receives 3 μL of 3× recombinant human SOS protein and GTP (Sigma, G8877) in Assay Buffer and is incubated at room temperature for 30 minutes (G13D), 60 minutes (G12C/D, H/NRAS) or 90 minutes for G12V. The final reaction in each well of […] consists of 3 mM GTP, specific Ras and SOS proteins in the following concentrations: KRAS-G12C/SOS=3 nM/40 nM, KRAS-G12D/SOS=1 nM/40 nM, KRAS-G12V/SOS=1.25 nM/160 nM, KRAS-G13D/SOS=1.25 nM/0 nM, HRAS & NRAS=1.25 nM/40 nM.
(§5) The time-resolved fluorescence resonance energy transfer (TR-FRET) signal is measured on an Envision (PerkinElmer) plate reader: Excitation filter=340 nm; emission1=495 nm; emission2=520 nm; dichroic mirror=D400/D505; delay time=[…]. The signal of each well is determined as the ratio of the emission at 520 nm to that at 495 nm. […] The apparent effect as a function of compound concentration is fit to a four-parameter logistic equation.

KRAS-G12V = molecular target: T2, KRAS-G12V (Homo sapiens, UniProt P01116, G12V); test: as above; assay type: biochemical; conditions: 60 min preincubation, SOS + GTP, read-out: KRAS G12V GNE IC50
T2 construct: N-terminal biotin-acceptor peptide […]
T2 sequence (P01116 with tags, fused parts or gaps isoform P01116-2 G12V): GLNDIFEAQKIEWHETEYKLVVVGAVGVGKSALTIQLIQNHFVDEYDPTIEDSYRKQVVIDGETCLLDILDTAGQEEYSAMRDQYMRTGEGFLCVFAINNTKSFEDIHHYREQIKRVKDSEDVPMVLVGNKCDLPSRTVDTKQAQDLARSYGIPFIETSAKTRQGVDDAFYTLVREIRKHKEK
Source text: as §1, §2, §3, §4, §5

[1] = test system: PANC08.13 cells (homozygous KRAS-G12D activating mutation); test: Cellular phospho-ERK assay in G12D cell line; assay type: cell-based; conditions: Homo sapiens, PANC-08-13, 2 hours compound incubation, ratio of p-ERK vs. total ERK, read-out: PANC 0813 pERK IC50
Experimental: Procedure for Cellular Phospho-ERK Assay in G12D and G12V Cell Lines
PANC08.13 cells (ATCC® CRL-2551™), containing homozygous KRAS-G12D activating mutation, were cultured in growth medium made of RPMI1640-GlutaMAX™—I (ThermoFisher Scientific 61870) containing 15% heat inactivated fetal bovine serum (ThermoFisher Scientific 10091148)). SW620 cells (ATCC® […]), containing homozygous KRAS-G12V activating mutation, were cultured in growth medium that contains RPMI 1640-GlutaMAX™—I (ThermoFisher Scientific 61870) containing 10% heat inactivated fetal bovine serum (ThermoFisher Scientific 10091148).
Cells for the assay were harvested in growth medium after TrypLE (ThermoFisher scientific 12604021) digestion and were seeded in a 384-well collagen coated cell culture plate (Corning 356702) at a density of 10,000-15,000 cells/20 uL/well, and incubated at 37° C., 5% CO2 overnight. The compound (with 10 mM stock concentration) dose-response titrations were prepared [30 μM final ERK detection assay concentration and 1:3 dilutions, 10-point dose response] and appropriate amounts (270 nL) of test compounds were dispensed in a 384-well intermediate plate using an Echo 550 liquid handler. 30 uL/well of RPMI medium 1640-GlutaMAX™—I was added to the intermediate plate and the contents of the intermediate plate (10 uL/well) were then transferred to the 384-well collagen coated cell culture plate, which was incubated at 37° C., 5% CO2 for 2 hours. After removal of medium from the collagen coated cell culture plate, cells were lysed in lysis buffer from Alpha SureFire® Ultra™ Multiplex p-ERK and total ERK assay kit (PerkinElmer MPSU-PTERK) containing Halt™ Protease and Phosphatase inhibitor cocktail (ThermoFisher Scientific 78446) at room temperature with constant shaking at 300 rpm for 30 minutes. The cell lysates were then transferred to an OptiPlate-384 plate (PerkinElmer 6005620), and the phosphorylation of ERK (p-ERK) and total ERK levels were detected by Alpha SureFire® Ultra™ Multiplex p-EEK kit and total ERK assay kit (PerkinElmer MPSU-PTERK) following the manufacturer's protocol. Assay plates were read on a EnVision Multimode Plate Reader (PerkinElmer), and the ratio of p-ERK vs. total ERK in each well was used as the final readout. Dose response curves were analyzed using a 4-parameter logistic model to calculate IC50 values using Spotfire software.

T1 sequence (P01116 with tags, fused parts or gaps isoform P01116-2 G12D): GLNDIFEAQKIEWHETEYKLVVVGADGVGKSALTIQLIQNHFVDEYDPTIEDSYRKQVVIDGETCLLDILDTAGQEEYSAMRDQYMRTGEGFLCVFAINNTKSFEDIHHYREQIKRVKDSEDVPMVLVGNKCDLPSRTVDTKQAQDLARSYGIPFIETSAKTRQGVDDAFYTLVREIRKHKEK

| SMILES | IC50 (KRAS-G12D) | IC50 (KRAS-G12V) | IC50 [1] |
| --- | --- | --- | --- |
| N#Cc1c(N)sc2c(F)ccc(-c3cc4nc(OC[C@@]56CCCN5C[C@H](F)C6)nc(N5CCCOCC5)c4nc3C(F)(F)F)c12 [Ex. 46, 2-amino-7-fluoro-4-(2-(((2R,7aS)-2-fluorotetrahydro-1H-pyrrolizin-7a(5H)-yl)methoxy)-4-(1,4-oxazepan-4-yl)-6-(trifluoromethyl)pyrido[3,2-d]pyrimidin-7-yl)benzo[b]thiophene-3-carbonitrile] | 40.9 nM | 8.9 nM | – |
| CCC1CCOCCN1c1nc(OC[C@@]23CCCN2C[C@H](F)C3)nc2c(F)c(-c3ccc(F)c4sc(N)c(C#N)c34)c(Cl)cc12 (stereo partly drawn) [compound 14, 2-amino-4-(6-chloro-4-(5-ethyl-1,4-oxazepan-4-yl)-8-fluoro-2-(((2R,7aS)-2-fluorotetrahydro-1H-pyrrolizin-7a(5H)-yl)methoxy)quinazo-lin-7-yl)-7-fluorobenzo[b]thio-phene-3-carbonitrile] | 6.32 nM | 6.18 nM | 154 nM |
| N#Cc1c(N)sc2c(F)ccc(-c3c(Cl)cc4c(N5CCOCCC5C(F)(F)F)nc(OC[C@@]56CCCN5C[C@H](F)C6)nc4c3F)c12 (stereo partly drawn) [compound 15, 2-amino-4-(6-chloro-8-fluoro-2-(((2R,7aS)-2-fluorotetrahydro-1H-pyrrolizin-7a(5H)-yl)methoxy)-4-(5-(trifluoromethyl)-1,4-oxazepan-4-yl)quinazolin-7-yl)-7-fluorobenzo[b]thio-phene-3-carbonitrile] | 94 nM | 20.1 nM | 464 nM |
| Cc1cc(N)nc(-c2c(Cl)cc3c(N4CCCSCC4)nc(OC[C@@]45CCCN4C[C@H](F)C5)nc3c2F)c1C(F)(F)F [compound 42, 6-(6-chloro-8-fluoro-2-(((2R,7aS)-2-fluorotetrahydro-1H-pyrrolizin-7a(5H)-yl)methoxy)-4-(1,4-thiazepan-4-yl)quinazolin-7-yl)-4-methyl-5-(trifluoromethyl)pyridin-2-amine] | 273 nM | 59.1 nM | – |
| Cc1cc(N)nc(-c2c(Cl)cc3c(N4CCOCC(F)(F)C4)nc(OC[C@@]45CCCN4C[C@H](F)C5)nc3c2F)c1C(F)(F)F [compound 43, 6-(6-chloro-4-(6,6-difluoro-1,4-oxazepan-4-yl)-8-fluoro-2-(((2R,7aS)-2-fluorotetrahydro-1H-pyrrolizin-7a(5H)-yl)methoxy)quinazolin-7-yl)-4-methyl-5-(trifluoromethyl)pyridin-2-amine] | 927 nM | 91.8 nM | – |
| N#Cc1c(N)sc2c(F)ccc(-c3c(Cl)cc4c(N5C6COCC5C6)nc(OC[C@@]56CCCN5C[C@H](F)C6)nc4c3F)c12 [compound 47, 4-(4-(3-oxa-6-azabicyclo[3.1.1]heptan-6-yl)-6-chloro-8-fluoro-2-(((2R,7aS)-2-fluorotetrahydro-1H-pyrrolizin-7a(5H)-yl)methoxy)quinazolin-7-yl)-2-amino-7-fluorobenzo[b]thiophene-3-carbonitrile] | 23.4 nM | – | – |
| N#Cc1c(N)sc2c(F)ccc(-c3c(Cl)cc4c(N5CCOCC5)nc(OC[C@@]56CCCN5C[C@H](F)C6)nc4c3F)c12 [compound 48, 2-amino-4-(6-chloro-8-fluoro-2-(((2R,7aS)-2-fluorotetrahydro-1H-pyrrolizin-7a(5H)-yl)methoxy)-4-morpholinoquinazolin-7-yl)-7-fluorobenzo[b]thiophene-3-carbonitrile] | 70.9 nM | 8.89 nM | – |
| C[C@H]1CCOCCN1c1nc(OC[C@@]23CCCN2C[C@H](F)C3)nc2c(F)c(-c3ccc(F)c4sc(N)c(C#N)c34)ccc12 [compound 49, 2-amino-7-fluoro-4-(8-fluoro-2-(((2R,7aS)-2-fluorotetrahydro-1H-pyrrolizin-7a(5H)-yl)methoxy)-4-((S)-5-methyl-1,4-oxazepan-4-yl)quinazolin-7-yl)benzo[b]thiophene-3-carbonitrile] | 477 nM | 160 nM | – |
| C[C@H]1CCOCCN1c1nc(OC[C@@]23CCCN2C[C@H](F)C3)nc2cc(-c3ccc(F)c4sc(N)c(C#N)c34)c(C(F)(F)F)nc12 [compound 50, 2-amino-7-fluoro-4-(2-(((2R,7aS)-2-fluorotetrahydro-1H-pyrrolizin-7a(5H)-yl)methoxy)-4-((S)-5-methyl-1,4-oxazepan-4-yl)-6-(trifluoromethyl)pyrido[3,2-d]pyrimidin-7-yl)benzo[b]thiophene-3-carbonitrile] | 30.5 nM | 7.6 nM | – |
| N#Cc1c(N)sc2c(F)ccc(-c3c(C(F)(F)F)cc4c(N5CC6COC(C6)C5)nc(OC[C@@]56CCCN5C[C@H](F)C6)nc4c3F)c12 (stereo partly drawn) [compound 51, 4-(4-((1R,5S)-6-oxa-3-azabicyclo[3.2.1]octan-3-yl)-8-fluoro-2-(((2R,7aS)-2-fluorotetrahydro-1H-pyrrolizin-7a(5H)-yl)methoxy)-6-(trifluoromethyl)quinazo-lin-7-yl)-2-amino-7-fluorobenzo[b]thiophene-3-carbonitrile] | 23.7 nM | 4.52 nM | – |
| N#Cc1c(N)sc2c(F)ccc(-c3c(C(F)(F)F)cc4c(N5C[C@H]6CC[C@H]6C5)nc(OC[C@@]56CCCN5C[C@H](F)C6)nc4c3F)c12 [compound 52, 4-(4-((1R,5S)-3-azabicyclo[3.2.0]heptan-3-yl)-8-fluoro-2-(((2R,7aS)-2-fluorotetrahydro-1H-pyrrolizin-7a(5H)-yl)methoxy)-6-(trifluoromethyl)quinazo-lin-7-yl)-2-amino-7-fluorobenzo[b]thiophene-3-carbonitrile] | 210 nM | 43.1 nM | – |
| N#Cc1c(N)sc2c(F)ccc(-c3c(C(F)(F)F)cc4c(N5CCC6(C5)CC6(F)F)nc(OC[C@@]56CCCN5C[C@H](F)C6)nc4c3F)c12 (stereo partly drawn) [compound 53, 2-amino-4-(4-(1,1-difluoro-5-azaspiro[2.4]heptan-5-yl)-8-fluoro-2-(((2R,7aS)-2-fluorotetrahydro-1H-pyrrolizin-7a(5H)-yl)methoxy)-6-(trifluoromethyl)quinazo-lin-7-yl)-7-fluorobenzo[b]thiophene-3-carbonitrile] | 972 nM | 84.7 nM | – |

Source: patent US20260083750A1, “SMALL MOLECULE INHIBITORS OF KRAS PROTEINS” (MERCK SHARP & DOHME LLC, priority 2022, published 2026)
